Data on 20 compounds can be found in US20110281896A1, “OPTICALLY PURE QUINAZOLINE COMPOUNDS” (Jiangsu Hansoh Pharmaceutical Co. Ltd, priority 2009, published 2011).

Assay [1] has as its system A431. Put plainly: Antitumor activity in vitro, SRB cell proliferation inhibition. Type of assay: cell-based. The note with it: 72 h incubation, Logit method. The procedure:
(§1) Evaluation of Antitumor Activity In Vitro
(§2) Cell Strains: A431; MCF-7
(§3) Experiment Design: Cells were incubated with different concentrations of compounds for 72 hours. The inhibition of cell proliferation by the compounds was evaluated by SRB, followed by calculation of the inhibition rate. Then, value of IC50 was calculated by using-Logit method base on the inhibition rate and used to compare in vitro antitumor activity of the compounds.
(§4) Method for Calculating the Inhibition Rate: Inhibition rate (%)=(OD value of control group−OD value of drug group)/OD value of control group×100%

The test system of assay [2] is MCF-7. Described as above. Type of assay: cell-based. The note with it: 72 h incubation, Logit method. Here is the method: as §1, §2, §3, §4
Assay [3] concerns human lung cancer Calu-3 xenografts. Put plainly: Effect on xenografts in nude mice with lung cancer Calu-3. Type of assay: in vivo, BALB/cA-nude mice. The note with it: for Initial Tumor Volume (mm^3) D0: D0 = time of first administration (baseline); for Initial Tumor Volume (mm^3) D0 / Final Tumor Inhibition Rate (%) D16 / % T/C D16 / Relative Tumor Volume D16 / Final Tumor Volume (mm^3) D16 / The Recession/Group / inhibition of growth of human lung cancer Calu-3 (in words): PO QD × 17; for Initial Tumor Volume (mm^3) D0 / Final Tumor Inhibition Rate (%) D16 / % T/C D16 / Relative Tumor Volume D16 / Final Tumor Volume (mm^3) D16 / The Recession/Group: 146.5-146.7 mg/kg; for Initial Tumor Volume (mm^3) D0 / Relative Tumor Volume D16 / Final Tumor Volume (mm^3) D16: mean; for % T/C D16: C = mean tumor volume of drug, control group; for Final Tumor Volume (mm^3) D16: D16 = 17th day after administration; for The Recession/Group: number of mice per group of 6. Here is the method: Effect of compound 97(±), compound 97, compound 110 and Lapatinib (positive control) on xenografts in nude mice with lung cancer Calu-3 Remark: “±” means the compound is racemic.
The purpose of the experiment is to evaluate and compare the effect of compound 97(±), compound 97, compound 110, Lapatinib on xenografts in nude mice with lung cancer Calu-3.
BALB/cA-nude mice, 6-7 weeks, ♀, purchased from ShangHai Slac laboratory animal Co., Ltd.
Calu-3 cells were injected subcutaneously into nude mice. Animals were divided into groups (d0) randomly after tumors have grown to 150-300 mm^3. Dosage and dosage regimen design can be seen in table 1. Tumors volume was measured 2-3 times per week. Mice were weighed and data were recorded. Calculation formula for tumor volume (V) is as below:
V=½×a×b^2, wherein, a and b represent length and width respectively.

The mark [4] stands for this setting: Homo sapiens, A-431, A431 cells.
Setting [5] is: Homo sapiens, MCF7, MCF-7 cells.
Setting [6] is: xenografts in nude mice, PO QD × 17, 146.7 mg/kg.

Molecules are shown by their SMILES.

Compound `CN(C)[C@H](CS(C)(=O)=O)c1ccc(-c2ccc3ncnc(Nc4ccc(OCc5cccc(F)c5)c(Cl)c4)c3c2)o1` [Compound 97, (S)—N-(4-(3-fluorobenzyloxy)-3-chlorophenyl)-6-(5-(1-(N,N-dimethyl-amino)-2-(methylsulfonyl)ethyl)furan-2-yl)quinazolin-4-amine] showed a 50% inhibitory concentration (IC50) in assay [1] (setting [4]) of 0.734 µM. In assay [2] (setting [5]), this compound displayed an IC50 of 6.67 µM. Moreover, in assay [3], the “Initial Tumor Volume (mm^3) D0” value came out at 291.2 mm^3, the “Final Tumor Inhibition Rate (%) D16” value was found to be 44%, the “% T/C D16” value is given as 56% and the “Relative Tumor Volume D16” value worked out at 1.9. For the same compound, in assay [3], the “Final Tumor Volume (mm^3) D16” value is recorded as 525.4 mm^3 and the “The Recession/Group” value was 0. Also, the “inhibition of growth of human lung cancer Calu-3 (in words)” value (from here on “inhibition of growth … (in words)”) in assay [3] (xenografts in nude mice) is “inhibited the growth of human lung cancer Calu-3 significantly”.

`CN(C)[C@@H](CS(C)(=O)=O)c1ccc(-c2ccc3ncnc(Nc4ccc(OCc5cccc(F)c5)c(Cl)c4)c3c2)o1` [Compound 110, (R)—N-(4-(3-fluorobenzyl-oxy)-3-chlorophenyl)-6-(5-(1-(N,N-dimethyl-amino)-2-(methylsulfonyl)ethyl)-2-yl)quinazolin-4-amine]: in assay [1] (A431 cells), half-maximal inhibition (IC50) required 0.768 µM. Moreover, the IC50 in assay [2] (MCF-7 cells) was 5.67 µM. Besides, in assay [3], the “Initial Tumor Volume (mm^3) D0” value came to 249.1 mm^3, the “Final Tumor Inhibition Rate (%) D16” value was found to be 77%, the “% T/C D16” value came to 23% and the “Relative Tumor Volume D16” value came to 0.8. Further, in assay [3], the “Final Tumor Volume (mm^3) D16” value is on record as 187.4 mm^3 and the “The Recession/Group” value is reported as 1. For the same compound, in assay [3] (xenografts in nude mice), the “inhibition of growth … (in words)” value is listed as “inhibited the growth of human lung cancer Calu-3 significantly”. For the same compound, in assay [3] (setting [6]), the “fraction of the tumors in mice caused to shrink” value is listed as “⅚” and the “number of mice with tumor shrinking more than 50% in volume” value is “one”.

Turning to `C=CCN[C@H](CS(C)(=O)=O)c1cnc(-c2ccc3ncnc(Nc4ccc(OCc5cccc(F)c5)c(Cl)c4)c3c2)s1` [Compound 140], the IC50 in assay [1] (A431 cells) turned out to be 0.648 µM; in assay [2] (MCF-7 cells), 4.02 µM.

For `C#CCN[C@H](CS(C)(=O)=O)c1cnc(-c2ccc3ncnc(Nc4ccc(OCc5cccc(F)c5)c(Cl)c4)c3c2)s1` [Compound 141], the IC50 came to 0.486 µM in assay [1] (A431 cells) and 7.62 µM in assay [2] (MCF-7 cells).

For `CON[C@H](CS(C)(=O)=O)c1cnc(-c2ccc3ncnc(Nc4ccc(OCc5cccc(F)c5)c(Cl)c4)c3c2)s1` [Compound 142], the IC50 was 0.499 µM in assay [1] (A431 cells) and 7.87 µM in assay [2] (MCF-7 cells).

With `CON(C)[C@H](CS(C)(=O)=O)c1cnc(-c2ccc3ncnc(Nc4ccc(OCc5cccc(F)c5)c(Cl)c4)c3c2)s1` [Compound 143], the half-inhibitory concentration (IC50) in assay [1] (A431 cells) turned out to be 0.788 µM; in assay [2] (MCF-7 cells) it was 5.09 µM.

On to `CS(=O)(=O)C[C@@H](N)c1ccc(-c2ccc3ncnc(Nc4ccc5c(cnn5Cc5cccc(F)c5)c4)c3c2)o1` [Compound 144, (S)—N-(1-(3-fluorobenzyl)-1H-indazol-5-yl)-6-(5-(1-(amino)-2-(methylsulfonyl)ethyl)furan-2-yl)quinazolin-4-amine], for which the IC50 in assay [1] (setting [4]) was 0.711 µM; in assay [2] (setting [5]), 4.97 µM.

Consider `CN[C@H](CS(C)(=O)=O)c1ccc(-c2ccc3ncnc(Nc4ccc5c(cnn5Cc5cccc(F)c5)c4)c3c2)o1` [Compound 145, (S)—N-(1-(3-fluorobenzyl)-1H-indazol-5-yl)-6-(5-(1-(methylamino)-2-(methylsulfonyl)ethyl)furan-2-yl)quinazolin-4-amine], for which the half-inhibitory concentration (IC50) was 0.581 µM in assay [1] (setting [4]) and 8.24 µM in assay [2] (setting [5]).

`CCN[C@H](CS(C)(=O)=O)c1ccc(-c2ccc3ncnc(Nc4ccc5c(cnn5Cc5cccc(F)c5)c4)c3c2)o1` [Compound 146, (S)—N-(1-(3-fluorobenzyl)-1H-indazol-5-yl)-6-(5-(1-(ethylamino)-2-(methylsulfonyl)ethyl)furan-2-yl)quinazolin-4-amine]: the IC50 in assay [1] (setting [4]) amounted to 0.489 µM; in assay [2] (setting [5]), 5.46 µM.

With `CCCN[C@H](CS(C)(=O)=O)c1ccc(-c2ccc3ncnc(Nc4ccc5c(cnn5Cc5cccc(F)c5)c4)c3c2)o1` [Compound 147, (S)—N-(1-(3-fluorobenzyl)-1H-indazol-5-yl)-6-(5-(1-(propylamino)-2-(methylsulfonyl)ethyl)furan-2-yl)quinazolin-4-amine], the IC50 in assay [1] (setting [4]) is 0.406 µM; in assay [2] (setting [5]) it was 8.01 µM.

In the case of `CN(C1CC1)[C@H](CS(C)(=O)=O)c1ccc(-c2ccc3ncnc(Nc4ccc5c(cnn5Cc5cccc(F)c5)c4)c3c2)o1` [Compound 148, (S)—N-(1-(3-fluorobenzyl)-1H-indazol-5-yl)-6-(5-(1-(cyclopropyl-methyl-amino)-2-(methylsulfonyl)ethyl)furan-2-yl)quinazolin-4-amine], the 50% inhibitory concentration (IC50) is 0.442 µM in assay [1] (setting [4]) and 7 µM in assay [2] (setting [5]).

Consider `CN(C)[C@H](CS(C)(=O)=O)c1ccc(-c2ccc3ncnc(Nc4ccc5c(cnn5Cc5cccc(F)c5)c4)c3c2)o1` [Compound 149, (S)—N-(1-(3-fluorobenzyl)-1H-indazol-5-yl)-6-(5-(1-(N,N-dimethylamino)-2-(methylsulfonyl)ethyl)furan-2-yl)quinazolin-4-amine], for which the IC50 was found to be 0.349 µM in assay [1] (setting [4]) and 7.23 µM in assay [2] (setting [5]).

With `CCN(CC)[C@H](CS(C)(=O)=O)c1ccc(-c2ccc3ncnc(Nc4ccc5c(cnn5Cc5cccc(F)c5)c4)c3c2)o1` [Compound 150], the half-maximal inhibitory concentration (IC50) amounted to 0.624 µM in assay [1] (A431 cells) and 6.67 µM in assay [2] (MCF-7 cells).

Turning to `CCCN(CCC)[C@H](CS(C)(=O)=O)c1ccc(-c2ccc3ncnc(Nc4ccc5c(cnn5Cc5cccc(F)c5)c4)c3c2)o1` [Compound 151], the results for the IC50 in assay [1] (A431 cells) and in assay [2] (MCF-7 cells) were 0.637 µM and 6.08 µM, respectively.

For the compound `CCN(C)[C@H](CS(C)(=O)=O)c1ccc(-c2ccc3ncnc(Nc4ccc5c(cnn5Cc5cccc(F)c5)c4)c3c2)o1` [Compound 152], the half-maximal inhibitory concentration (IC50) in assay [1] (A431 cells) was determined as 0.601 µM; in assay [2] (MCF-7 cells), 6.54 µM.

For the compound `C=CCN[C@H](CS(C)(=O)=O)c1ccc(-c2ccc3ncnc(Nc4ccc5c(cnn5Cc5cccc(F)c5)c4)c3c2)o1` [Compound 153, (S)—N-(1-(3-fluorobenzyl)-1H-indazol-5-yl)-6-(5-(1-(allyl-amino)-2-(methylsulfonyl)ethyl)furan-2-yl)quinazolin-4-amine], the 50% inhibitory concentration (IC50) in assay [1] (setting [4]) was 0.857 µM; in assay [2] (setting [5]), 5.87 µM.

Consider `C#CCN[C@H](CS(C)(=O)=O)c1ccc(-c2ccc3ncnc(Nc4ccc5c(cnn5Cc5cccc(F)c5)c4)c3c2)o1` [Compound 154, (S)—N-(1-(3-fluorobenzyl)-1H-indazol-5-yl)-6-(5-(1-(propargyl-amino)-2-(methylsulfonyl)ethyl)furan-2-yl)quinazolin-4-amine], for which the IC50 is 0.624 µM in assay [1] (setting [4]) and 4.9 µM in assay [2] (setting [5]).

In the case of `CON[C@H](CS(C)(=O)=O)c1ccc(-c2ccc3ncnc(Nc4ccc5c(cnn5Cc5cccc(F)c5)c4)c3c2)o1` [Compound 155], the results for the IC50 in assay [1] (A431 cells) and in assay [2] (MCF-7 cells) were 0.48 µM and 8.59 µM, respectively.

In the case of `CON(C)[C@H](CS(C)(=O)=O)c1ccc(-c2ccc3ncnc(Nc4ccc5c(cnn5Cc5cccc(F)c5)c4)c3c2)o1` [Compound 156], the half-maximal inhibitory concentration (IC50) was 0.428 µM in assay [1] (A431 cells) and 5.52 µM in assay [2] (MCF-7 cells).

`CS(=O)(=O)CCNCc1ccc(-c2ccc3ncnc(Nc4ccc(OCc5cccc(F)c5)c(Cl)c4)c3c2)o1` [Lapatinib, reference compound] yielded an IC50 in assay [1] (setting [4]) of 0.643 µM. Also, in assay [2] (setting [5]), half-maximal inhibition (IC50) required 8.47 µM. For the same compound, in assay [3], the “Initial Tumor Volume (mm^3) D0” value turned out to be 262.3 mm^3, the “Final Tumor Inhibition Rate (%) D16” value is 42%, the “% T/C D16” value is 58% and the “Relative Tumor Volume D16” value amounted to 2.0. In assay [3], the “Final Tumor Volume (mm^3) D16” value is 526.5 mm^3 and the “The Recession/Group” value is 0. Also, the “inhibition of growth … (in words)” value in assay [3] (xenografts in nude mice) is reported as “inhibited the growth of human lung cancer Calu-3 significantly”.
